In US20230357179A1, “RAF KINASE INHIBITORS AND METHODS OF USE THEREOF” (Deciphera Pharmaceuticals, LLC, priority 2021, published 2023):

Key:
C-Raf kinase = target: T1, C-Raf kinase (Homo sapiens, UniProt P04049, Y340D/Y341D); assay: Biochemical assay for C-Raf.1 (coupled pyruvate kinase/lactate dehydrogenase); conditions: read-out: CRAF.1 IC50
T1 construct: Y340D,; GST (N); purchased Sigma
Method in brief: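 NADH depletion at 340 nm monitored continuously for 6 h at 30° C, with rates taken over 4–5 h. The coupled pyruvate kinase/lactate dehydrogenase reaction used 1 mM ATP, 30.1 nM MEK substrate and 0.43 nM kinase at pH 7.5. IC50 was fitted sigmoidally from percent inhibition of serially diluted compound.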

B-Raf kinase = target: T2, B-Raf kinase (Homo sapiens, UniProt P15056); assay: Biochemical assay for B-Raf.1 (coupled pyruvate kinase/lactate dehydrogenase); conditions: read-out: BRAF.1 IC50
T2 construct: GST (N); purchased Sigma
T2 sequence (P15056 416-766): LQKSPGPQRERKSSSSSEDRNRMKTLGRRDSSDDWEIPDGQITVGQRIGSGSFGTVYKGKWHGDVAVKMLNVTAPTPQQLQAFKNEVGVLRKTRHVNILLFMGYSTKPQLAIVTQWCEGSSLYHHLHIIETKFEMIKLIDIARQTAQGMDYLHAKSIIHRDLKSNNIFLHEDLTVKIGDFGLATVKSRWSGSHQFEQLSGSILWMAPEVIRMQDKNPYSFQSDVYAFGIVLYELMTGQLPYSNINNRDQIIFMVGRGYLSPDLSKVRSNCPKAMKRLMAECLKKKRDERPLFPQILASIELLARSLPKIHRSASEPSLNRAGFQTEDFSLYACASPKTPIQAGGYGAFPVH
Method in brief: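 Reaction rates over the 4–5 h window of a continuous 6 h, 30 °C read were converted to percent inhibition and fitted for IC50. B-Raf (0.13 nM) phosphorylated 30.1 nM MEK with 1 mM ATP; ADP coupled via PK/LDH to NADH loss at 340 nm, 1% DMSO final.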

H2405 cells = assay: H2405 cell proliferation assay (2), resazurin, 384-well; assay type: cell-based; conditions: Homo sapiens, NCI-H2405, inhibition of cell proliferation, 67-72 h
Method: H2405 Cell Proliferation Assay (2)
H2405 cells (catalog #CRL-5994) are obtained from the American Type Culture Collect (ATTC, Manassas, VA). Briefly, cells were grown in RPMI 1640 supplemented with 5% characterized fetal bovine serum (Invitrogen, Carlsbad, CA) and 1% Penicillin/Streptomycin/L-Glutamine at 37° C., 5% CO2, and 95% humidity. Cells are expanded until reaching 70-95% confluency at which point they are sub-cultured or harvested for assay use. A serial dilution of test compound is dispensed into a 384-well black clear bottom plate in triplicate. Seven hundred fifty cells are added per well in 50 μL complete growth medium in the 384-well plate. Plates are incubated for 67-72 h at 37° C., 5% CO2, and 95% humidity. At the end of the incubation, 10 μL of a 440 μM solution of resazurin (Sigma, St. Louis, MO) in PBS is added to each well of the plate and plates are incubated for an additional 5-6 h at 37° C., 5% CO2, and 95% humidity. Plates are read on a Synergy2 or equivalent reader (Biotek, Winooski VT) using an excitation of 540 nm and an emission of 600 nm. Data is analyzed using Prism software (GraphPad, San Diego, CA) to calculate IC50 values

WM3629 cells = assay: WM3629 cell proliferation assay (1), resazurin, 96-well; assay type: cell-based; conditions: inhibition of cell proliferation
Method: WM3629 Cell Proliferation Assay (1)
WM3629 cells (#WM3629-01-0001) are obtained from Rockland Immunochemicals Inc (Gilbertsville, PA). Briefly, cells were grown in MCDB 153 medium (Sigma, #M7403, St. Louis, MO) supplemented with 20% Leibovitz's L-15 (ThermoFisher #11415-064, Waltham, MA), 2% heat inactivated fetal bovine serum (ThermoFisher, #A3840001, Waltham, MA), 5 μg/mL Insulin (Bovine Pancreas) (Sigma, #I0516, St. Louis, MO), 1.68 mM Calcium Chloride (Sigma, #C-34006, St. Louis, MO) and 1% Penicillin/Streptomycin/L-Glutamine (ThermoFisher #10378016, Waltham, MA) at 37° C., 5% CO2, and 95% humidity. Cells are expanded until reaching 70-95% confluency at which point they are subcultured or harvested for assay use. A serial dilution of test compound is dispensed into a 96-well black clear bottom plate in triplicate. Four thousand five hundred cells are added per well in 200 μL complete growth medium in the 96-well plate. Plates are incubated for 67-72 hours at 37° C., 5% CO2, and 95% humidity. At the end of the incubation, 40 μL of a 440 μM solution of resazurin (Sigma, #199303, St. Louis, MO) in PBS is added to each well of the plate and plates are incubated for an additional 6-7 hours at 37° C., 5% CO2, and 95% humidity. Plates are read on a Synergy2 or equivalent reader (Biotek, Winooski VT) using an excitation of 540 nm and an emission of 600 nm. Data is analyzed using Prism software (GraphPad, San Diego, CA) to calculate IC50 values.

T1 sequence (P04049 307-648 Y340D/Y341D): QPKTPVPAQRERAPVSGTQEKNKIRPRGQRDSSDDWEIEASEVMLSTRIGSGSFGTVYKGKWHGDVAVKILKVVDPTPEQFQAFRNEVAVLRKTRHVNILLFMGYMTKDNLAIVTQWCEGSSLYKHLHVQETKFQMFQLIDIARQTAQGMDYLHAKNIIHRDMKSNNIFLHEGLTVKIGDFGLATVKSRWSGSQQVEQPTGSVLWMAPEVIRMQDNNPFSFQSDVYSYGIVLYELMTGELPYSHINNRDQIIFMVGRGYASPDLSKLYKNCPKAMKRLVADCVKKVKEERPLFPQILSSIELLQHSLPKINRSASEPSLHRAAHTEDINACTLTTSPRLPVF

Compound | IC50 (C-Raf kinase) | IC50 (B-Raf kinase) | IC50 (H2405 cells) | IC50 (WM3629 cells)
COC(=O)Nc1cc(-c2cccc(-c3cc(NC(=O)NCCC(C)(C)OC)c(F)cc3C)c2)ccn1 [Example 85] | ≤ 100 nM | ≤ 100 nM |  | 
Cc1cc(F)c(NC(=O)NCCC2(C)CC2)cc1-c1cc(OCCO)nc(-c2ccnc3[nH]ncc23)c1 [Example 87] | ≤ 100 nM | ≤ 100 nM |  | 
Cc1cc(F)c(NC(=O)N[C@@H]2CC[C@H](F)C2)cc1-c1cc(OCCO)nc(-c2ccnc3[nH]ncc23)c1 [Example 88] | 100 to 500 nM | 500 to 1000 nM |  | 
Cc1cc(F)c(NC(=O)NCC[C@@H]2CCO2)cc1-c1cc(OCCO)nc(-c2ccnc3[nH]ncc23)c1 [Example 89] | > 1000 nM | > 1000 nM |  | 
COC(C)(C)CCNC(=O)Nc1cc(-c2cc(OCCO)nc(-c3ccnc4[nH]ccc34)c2)c(C)cc1F [Example 90] | ≤ 100 nM | ≤ 100 nM |  | 
COC(C)(C)CCNC(=O)Nc1cc(-c2cc(OCCO)nc(-c3ccnc4[nH]ncc34)c2)c(C)cc1F [Example 91] | ≤ 100 nM | ≤ 100 nM |  | 
Cc1cc(F)c(NC(=O)N2CCC(C)(C#N)CC2)cc1-c1cc(OCCO)nc(-c2ccnc3[nH]ncc23)c1 [Example 92] | 100 to 500 nM | 500 to 1000 nM |  | 
CNC(=O)c1cc(-c2cc(-c3cc(NC(=O)N4CC[C@H](C(F)(F)F)C4)ccc3C)ccn2)ccn1 [Example 215] |  |  | 100 to 500 nM | ≤ 100 nM
COC(=O)Nc1cc(-c2cncc(-c3cc(NC(=O)N4CC[C@H](C(F)(F)F)C4)ccc3C)c2)ncn1 [Example 224] |  |  | ≤ 100 nM | ≤ 100 nM
CNC(=O)c1cc(-c2cc(-c3cc(NC(=O)N4CC[C@H](C(C)C)C4)ccc3C)ccn2)ccn1 [Example 225] |  |  |  | ≤ 100 nM
Cc1ccc(NC(=O)N2CC[C@H](C)C2)cc1-c1cncc(-c2cc(NC(=O)C3CC3)ncn2)c1 [Example 227] |  |  | 1000 to 10000 nM | 
CNC(=O)c1cc(-c2cncc(-c3cc(NC(=O)N4CC[C@H](C(F)(F)F)C4)ccc3C)c2)ccn1 [Example 228] |  |  | 100 to 500 nM | 
CNC(=O)c1cc(-c2cncc(-c3cc(NC(=O)N4CC[C@H](C(C)C)C4)ccc3C)c2)ccn1 [Example 229] |  |  | 500 to 1000 nM | 
